The target of the first assay is T1, Fatty acid synthase (Homo sapiens, UniProt P49327). Briefly: Inhibition of FAS.
Target sequence in this assay (P49327 whole entry): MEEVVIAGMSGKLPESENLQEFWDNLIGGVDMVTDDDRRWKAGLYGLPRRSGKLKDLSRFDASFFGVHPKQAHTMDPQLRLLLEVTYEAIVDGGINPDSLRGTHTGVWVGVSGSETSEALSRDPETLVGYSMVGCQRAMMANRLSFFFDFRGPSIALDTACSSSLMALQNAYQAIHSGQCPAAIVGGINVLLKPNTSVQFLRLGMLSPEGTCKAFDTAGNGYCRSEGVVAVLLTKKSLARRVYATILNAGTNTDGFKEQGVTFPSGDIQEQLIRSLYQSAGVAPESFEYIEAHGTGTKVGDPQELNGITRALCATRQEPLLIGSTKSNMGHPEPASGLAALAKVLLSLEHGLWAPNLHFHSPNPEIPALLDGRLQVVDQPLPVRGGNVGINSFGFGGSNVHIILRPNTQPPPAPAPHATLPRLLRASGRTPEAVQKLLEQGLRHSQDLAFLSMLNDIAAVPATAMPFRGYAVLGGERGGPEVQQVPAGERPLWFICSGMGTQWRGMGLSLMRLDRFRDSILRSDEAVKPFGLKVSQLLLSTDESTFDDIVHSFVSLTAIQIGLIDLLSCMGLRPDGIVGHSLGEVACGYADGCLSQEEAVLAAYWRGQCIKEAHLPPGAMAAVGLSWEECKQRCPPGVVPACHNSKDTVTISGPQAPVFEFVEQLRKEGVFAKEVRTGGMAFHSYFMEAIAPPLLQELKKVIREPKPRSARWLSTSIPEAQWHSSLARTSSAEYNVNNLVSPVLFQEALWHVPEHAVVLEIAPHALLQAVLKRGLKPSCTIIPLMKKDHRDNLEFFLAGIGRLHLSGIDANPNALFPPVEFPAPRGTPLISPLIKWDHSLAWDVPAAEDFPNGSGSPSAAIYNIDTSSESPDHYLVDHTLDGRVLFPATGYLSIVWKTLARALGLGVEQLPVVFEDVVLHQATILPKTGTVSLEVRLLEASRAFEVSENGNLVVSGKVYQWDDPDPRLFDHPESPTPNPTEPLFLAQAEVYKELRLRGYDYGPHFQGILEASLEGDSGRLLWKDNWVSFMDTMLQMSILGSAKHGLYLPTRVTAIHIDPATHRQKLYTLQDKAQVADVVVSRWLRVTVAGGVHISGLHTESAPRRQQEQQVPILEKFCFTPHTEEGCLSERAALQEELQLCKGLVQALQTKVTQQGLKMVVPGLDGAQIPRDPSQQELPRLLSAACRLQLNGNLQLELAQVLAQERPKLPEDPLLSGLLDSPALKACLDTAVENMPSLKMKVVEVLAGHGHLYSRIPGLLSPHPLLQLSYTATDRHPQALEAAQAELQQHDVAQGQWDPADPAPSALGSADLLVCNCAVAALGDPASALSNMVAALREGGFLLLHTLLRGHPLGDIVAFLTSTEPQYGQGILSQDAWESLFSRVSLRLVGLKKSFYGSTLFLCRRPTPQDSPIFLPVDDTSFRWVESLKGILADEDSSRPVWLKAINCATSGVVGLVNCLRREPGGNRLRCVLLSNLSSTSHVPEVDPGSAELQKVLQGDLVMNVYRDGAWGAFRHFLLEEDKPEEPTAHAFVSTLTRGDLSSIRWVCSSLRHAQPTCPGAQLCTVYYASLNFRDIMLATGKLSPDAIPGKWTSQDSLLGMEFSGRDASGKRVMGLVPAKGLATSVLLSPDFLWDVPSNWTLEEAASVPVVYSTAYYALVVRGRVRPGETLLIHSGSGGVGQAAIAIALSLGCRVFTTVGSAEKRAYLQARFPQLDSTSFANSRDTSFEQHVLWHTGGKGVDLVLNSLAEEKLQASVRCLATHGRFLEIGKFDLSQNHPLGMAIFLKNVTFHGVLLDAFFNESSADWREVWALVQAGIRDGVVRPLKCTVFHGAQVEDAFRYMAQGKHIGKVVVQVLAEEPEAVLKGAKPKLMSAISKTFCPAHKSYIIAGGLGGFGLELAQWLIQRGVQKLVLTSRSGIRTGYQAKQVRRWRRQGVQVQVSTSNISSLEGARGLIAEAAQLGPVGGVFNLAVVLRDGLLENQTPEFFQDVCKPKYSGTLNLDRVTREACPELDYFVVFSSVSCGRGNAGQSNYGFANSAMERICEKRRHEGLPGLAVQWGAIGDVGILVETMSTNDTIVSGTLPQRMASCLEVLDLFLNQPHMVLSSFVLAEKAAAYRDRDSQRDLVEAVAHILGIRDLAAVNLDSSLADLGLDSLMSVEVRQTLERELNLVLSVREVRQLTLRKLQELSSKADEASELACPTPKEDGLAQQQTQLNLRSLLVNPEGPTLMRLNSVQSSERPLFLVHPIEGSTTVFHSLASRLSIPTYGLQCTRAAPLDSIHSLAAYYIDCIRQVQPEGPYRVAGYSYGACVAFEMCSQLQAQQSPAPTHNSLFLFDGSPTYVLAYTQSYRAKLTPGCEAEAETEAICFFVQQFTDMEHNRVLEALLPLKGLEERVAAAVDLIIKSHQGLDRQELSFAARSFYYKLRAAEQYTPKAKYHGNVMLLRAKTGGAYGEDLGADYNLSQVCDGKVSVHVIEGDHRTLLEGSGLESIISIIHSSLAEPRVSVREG
The molecule `O=c1c(O)c(-c2ccccc2)oc2ccccc12` [FLAVONOL] showed an IC50 of over 100 µM. As to `CCCC(=O)c1c(O)cc(OC)c(C)c1O`, it took 49.1 µM to reach half-maximal inhibition (IC50). This lies in the double-digit micromolar range.

For `CCC(=O)C1=C(O)C(C)(C)C(O)=C(CC2=C(O)C(C)(C)C(O)=C(C(C)=O)C2=O)C1=O`, the IC50 was found to be 71.7 µM. In the case of `CCCC(=O)C1=C(O)C(C)C(O)=C(CC2=C(O)C(C)(C)C(O)=C(C(=O)CC)C2=O)C1=O` (stereo unspecified), the half-inhibitory concentration (IC50) stood at 23.1 µM. Still for that read-out and setting: next, `CCCC(=O)c1c(O)c(C)c(O)c(Cc2c(O)c(C)c(O)c(C(=O)CCC)c2O)c1O`: 25.4 µM; `CCCC(=O)c1c(O)c(CC2=C(O)C(C)(C)C(O)=C(C(C)=O)C2=O)c(O)c(CC2=C(O)C(C)(C)C(O)=C(C(=O)CC)C2=O)c1O`: 31 µM.

Regarding `O=c1cc(-c2ccc(O)c(O)c2)oc2cc(O)cc(O)c12` [LUTEOLIN], the midpoint of inhibition, the IC50, lay at 62.5 µM. Against the preceding molecule, the IC50 is about 2-fold higher. Same read-out and setting: next, `CCCC(=O)C1=C(O)CC(O)=C(CC2=C(O)C(C)(C)C(O)=C(C(C)=O)C2=O)C1=O`: 29.7 µM. The same measure, in the same setting: next, `CCC(=O)C1=C(O)C(C)(C)C(O)=C(CC2=C(O)C(C)(C)C(O)=C(C(=O)CC)C2=O)C1=O`: 60.2 µM; `CCCC(=O)C1=C(O)C(C)(C)C(O)=C(CC2=C(O)C(C)(C)C(O)=C(C(=O)CC)C2=O)C1=O`: 56.1 µM; `Oc1cc(O)c2c(c1)O[C@H](c1ccc(O)c(O)c1)[C@H](O)C2` [(-)-EPICATECHIN]: over 100 µM.

Regarding `CCCC(=O)C1=C(O)C(C)C(O)=C(CC2=C(O)C(C)(C)C(O)=C(C(C)=O)C2=O)C1=O` (stereo unspecified), the IC50 worked out at 28.7 µM.

`C/C=C/C/C=C/CCC(=O)[C@H]1O[C@H]1C(N)=O` [CERULENIN]: half-maximal inhibition (IC50) was put at 13 µM. For the molecule `CCCC(=O)C1=C(OC)C(C)C(O)=C(CC2=C(O)C(C)(C)C(O)=C(C(=O)CCC)C2=O)C1=O` (stereo unspecified), the IC50 is 32.6 µM.

Another assay has as its target T1, Fatty acid synthase. Briefly: Inhibition of FAS at 100 uM.
Target sequence in this assay (P49327 whole entry, looked up): as the sequence (P49327 whole entry) above
In turn, `O=c1c(O)c(-c2ccccc2)oc2ccccc12` [FLAVONOL] gave an inhibition of 6.5%. The same measure, in the same setting: next, `Oc1cc(O)c2c(c1)O[C@H](c1ccc(O)c(O)c1)[C@H](O)C2` [(-)-EPICATECHIN]: 10.2%.

As usually defined, the IC50 is the concentration that inhibits the measured activity by half. A lower IC50 goes with greater potency. By inhibition is commonly meant the relative decrease from the control value, in per cent. Read a low inhibition as little suppression.

Source of the values: ChEMBL document CHEMBL1149347, “Fatty acid synthase inhibitory activity of acylphloroglucinols isolated from Dryopteris crassirhizoma” (Bioorg Med Chem Lett, 2006).
